Assay results as given in ChEMBL document CHEMBL2203120, “Contribution to investigation of antimicrobial activity of styrylquinolines” (Bioorg Med Chem, 2012).
≈ marks a conversion by molar mass, not a printed value. Where a SMILES comes first, the peptide text is derived from it. Bridges are numbered along the chain shown (N, C = ends). [ ]: non-standard residue; d: D form. The star is where a group is joined. Ileψ(thiazoline)Cys = CC[C@H](C)[C@H](N)C1=N[C@H](C(=O)*)CS1; dOrn = NCCC[C@@H](N)C(=O)O

Experiments:
[1] = Lipophilicity, log P of compound by RP-HPLC analysis; type: physicochemical
Pichia kudriavzevii [2] = test: Antimicrobial activity against Candida krusei ATCC 6258 after 48 hrs by broth microdilution test; type: functional; details: ATCC 6258, 48 h
[3] = system: Staphylococcus epidermidis; test: Antimicrobial activity against Staphylococcus epidermidis H 6966/08 after 48 hrs by broth microdilution method; type: functional; details: H 6966/08, 48 h
[4] = system: Staphylococcus epidermidis; test: Antimicrobial activity against Staphylococcus epidermidis H 6966/08 after 24 hrs by broth microdilution method; type: functional; details: H 6966/08, 24 h
Staphylococcus aureus [5] = test: Antimicrobial activity against Staphylococcus aureus CCM 4516/08 after 48 hrs by broth microdilution method; type: functional; details: CCM 4516/08, 48 h
Candida tropicalis [6] = test: Antimicrobial activity against Candida tropicalis 156 after 48 hrs by broth microdilution test; type: functional; details: Candida tropicalis, 156, 48 h
Candida albicans [7] = test: Antimicrobial activity against Candida albicans ATCC 44859 after 48 hrs by broth microdilution test; type: functional; details: ATCC 44859, 48 h
Staphylococcus aureus [8] = test: Antimicrobial activity against methicillin-resistant Staphylococcus aureus H 5996/08 after 48 hrs by broth microdilution method; type: functional; details: H 5996/08, 48 h
Staphylococcus aureus [9] = test: Antimicrobial activity against methicillin-resistant Staphylococcus aureus H 5996/08 after 24 hrs by broth microdilution method; type: functional; details: H 5996/08, 24 h
Trichosporon beigelii [10] = test: Antimicrobial activity against Trichosporon beigelii 1188 after 48 hrs by broth microdilution test; type: functional; details: Trichosporon beigelii, 1188, 48 h
Staphylococcus aureus [11] = test: Antimicrobial activity against Staphylococcus aureus CCM 4516/08 after 24 hrs by broth microdilution method; type: functional; details: CCM 4516/08, 24 h
Nakaseomyces glabratus [12] = test: Antimicrobial activity against Candida glabrata 20/I after 48 hrs by broth microdilution test; type: functional
Candida albicans [13] = test: Antimicrobial activity against Candida albicans ATCC 44859 after 24 hrs by broth microdilution test; type: functional; details: ATCC 44859, 24 h
Trichosporon beigelii [14] = test: Antimicrobial activity against Trichosporon beigelii 1188 after 24 hrs by broth microdilution test; type: functional; details: Trichosporon beigelii, 1188, 24 h
Nakaseomyces glabratus [15] = test: Antimicrobial activity against Candida glabrata 20/I after 24 hrs by broth microdilution test; type: functional
Pichia kudriavzevii [16] = test: Antimicrobial activity against Candida krusei ATCC 6258 after 24 hrs by broth microdilution test; type: functional; details: ATCC 6258, 24 h
Candida tropicalis [17] = test: Antimicrobial activity against Candida tropicalis 156 after 24 hrs by broth microdilution test; type: functional; details: Candida tropicalis, 156, 24 h
[18] = system: Trichophyton mentagrophytes; test: Antimicrobial activity against Trichophyton mentagrophytes 445 after 120 hrs by broth microdilution test; type: functional; details: Trichophyton mentagrophytes, 445, 120 h
Lichtheimia corymbifera [19] = test: Antimicrobial activity against Absidia corymbifera 272 after 48 hrs by broth microdilution test; type: functional; details: Lichtheimia corymbifera, 272, 48 h
Lichtheimia corymbifera [20] = test: Antimicrobial activity against Absidia corymbifera 272 after 24 hrs by broth microdilution test; type: functional; details: Lichtheimia corymbifera, 272, 24 h
Aspergillus fumigatus [21] = test: Antimicrobial activity against Aspergillus fumigatus 231 after 24 hrs by broth microdilution test; type: functional; details: Aspergillus fumigatus, 231, 24 h
[22] = system: Trichophyton mentagrophytes; test: Antimicrobial activity against Trichophyton mentagrophytes 445 after 72 hrs by broth microdilution test; type: functional; details: Trichophyton mentagrophytes, 445, 72 h
Aspergillus fumigatus [23] = test: Antimicrobial activity against Aspergillus fumigatus 231 after 48 hrs by broth microdilution test; type: functional; details: Aspergillus fumigatus, 231, 48 h

Row | Compound | logP [1] | MIC80 (Pichia kudriavzevii [2]) [µM] | MIC90 [3] [µM] | MIC90 [4] [µM] | MIC90 (Staphylococcus aureus [5]) [µM] | MIC80 (Candida tropicalis [6]) [µM] | MIC80 (Candida albicans [7]) [µM] | MIC90 (Staphylococcus aureus [8]) [µM] | MIC90 (Staphylococcus aureus [9]) [µM] | MIC80 (Trichosporon beigelii [10]) [µM] | MIC90 (Staphylococcus aureus [11]) [µM] | MIC80 (Nakaseomyces glabratus [12]) [µM] | MIC80 (Candida albicans [13]) [µM] | MIC80 (Trichosporon beigelii [14]) [µM] | MIC80 (Nakaseomyces glabratus [15]) [µM] | MIC80 (Pichia kudriavzevii [16]) [µM] | MIC80 (Candida tropicalis [17]) [µM] | MIC50 (Aspergillus fumigatus [21]) [µM] | other results
1 | Oc1ccc(/C=C/c2ccc3c(Cl)cc(Cl)c(O)c3n2)cc1 | 5.07 | > 125 | 62.5 (≈ 20.8 µg/mL) | 62.5 (≈ 20.8 µg/mL) | 15.6 (≈ 5.19 µg/mL) | > 125 | > 125 | 31.2 (≈ 10.4 µg/mL) | 31.2 (≈ 10.4 µg/mL) | > 125 | 7.81 (≈ 2.59 µg/mL) | > 125 |  |  |  |  |  |  | 
2 | Oc1ccc(/C=C/c2ccc3c(Cl)cc(Cl)c(O)c3n2)c(O)c1 | 4.68 |  | 31.2 (≈ 10.9 µg/mL) | 15.6 (≈ 5.44 µg/mL) | 62.5 (≈ 21.8 µg/mL) |  |  | 62.5 (≈ 21.8 µg/mL) | 31.2 (≈ 10.9 µg/mL) |  | 15.6 (≈ 5.44 µg/mL) |  |  |  |  |  |  |  | 
3 | Oc1cc(O)cc(/C=C/c2ccc3c(Cl)cc(Cl)c(O)c3n2)c1 | 4.68 | > 125 | 125 (≈ 43.5 µg/mL) | 31.2 (≈ 10.9 µg/mL) | 125 (≈ 43.5 µg/mL) | > 125 | > 125 | 125 (≈ 43.5 µg/mL) | 125 (≈ 43.5 µg/mL) | > 125 | 125 (≈ 43.5 µg/mL) | > 125 | > 125 | > 125 | > 125 | > 125 | > 125 |  | 
4 | CCOc1ccccc1/C=C/c1ccc2c(Cl)cc(Cl)c(O)c2n1 | 5.67 | 3.9 (≈ 1.4 µg/mL) | 7.81 (≈ 2.81 µg/mL) | 3.9 (≈ 1.4 µg/mL) | 7.81 (≈ 2.81 µg/mL) | 0.98 (≈ 0.353 µg/mL) | 0.98 (≈ 0.353 µg/mL) | 7.81 (≈ 2.81 µg/mL) | 3.9 (≈ 1.4 µg/mL) | 1.95 (≈ 0.702 µg/mL) | 3.9 (≈ 1.4 µg/mL) | 1.95 (≈ 0.702 µg/mL) | 0.49 (≈ 0.177 µg/mL) | 0.49 (≈ 0.177 µg/mL) | 0.98 (≈ 0.353 µg/mL) | 0.98 (≈ 0.353 µg/mL) | 0.98 (≈ 0.353 µg/mL) | 3.9 (≈ 1.4 µg/mL) | MIC50 [18]: 1.52 µM (≈ 0.548 µg/mL); MIC50 (Lichtheimia corymbifera [19]): 15.6 µM (≈ 5.63 µg/mL); MIC50 (Lichtheimia corymbifera [20]): 15.6 µM (≈ 5.63 µg/mL); MIC50 [22]: 1.39 µM (≈ 0.501 µg/mL); MIC50 (Aspergillus fumigatus [23]): 3.9 µM (≈ 1.4 µg/mL)
5 | CCOc1ccc(/C=C/c2ccc3c(Cl)cc(Cl)c(O)c3n2)cc1 | 5.67 | 125 (≈ 45 µg/mL) | 125 (≈ 45 µg/mL) | 125 (≈ 45 µg/mL) | 125 (≈ 45 µg/mL) | 125 (≈ 45 µg/mL) | 125 (≈ 45 µg/mL) | 125 (≈ 45 µg/mL) | 125 (≈ 45 µg/mL) | 125 (≈ 45 µg/mL) | 125 (≈ 45 µg/mL) | > 125 | 125 (≈ 45 µg/mL) | 125 (≈ 45 µg/mL) | > 125 | 125 (≈ 45 µg/mL) | 125 (≈ 45 µg/mL) | > 125 | MIC50 [18]: 125 µM (≈ 45 µg/mL); MIC50 (Lichtheimia corymbifera [19]): > 125 µM; MIC50 (Lichtheimia corymbifera [20]): > 125 µM; MIC50 [22]: 125 µM (≈ 45 µg/mL); MIC50 (Aspergillus fumigatus [23]): > 125 µM
6 | Oc1c(Cl)cc(Cl)c2ccc(/C=C/c3ccc(/C=C/c4ccc5c(Cl)cc(Cl)c(O)c5n4)cc3)nc12 | 8.88 |  | 125 (≈ 69.3 µg/mL) | 62.5 (≈ 34.6 µg/mL) | 125 (≈ 69.3 µg/mL) |  | 3.9 (≈ 2.16 µg/mL) | 125 (≈ 69.3 µg/mL) | 62.5 (≈ 34.6 µg/mL) |  | 62.5 (≈ 34.6 µg/mL) |  | 0.98 (≈ 0.543 µg/mL) | 3.9 (≈ 2.16 µg/mL) | 0.49 (≈ 0.272 µg/mL) | 0.98 (≈ 0.543 µg/mL) |  | 3.9 (≈ 2.16 µg/mL) | MIC50 [22]: 3.9 µM (≈ 2.16 µg/mL)
7 | Oc1ccc(/C=C/c2ccc3c(Cl)cc(Cl)c(O)c3n2)cc1O | 4.68 |  | 31.2 (≈ 10.9 µg/mL) | 15.6 (≈ 5.44 µg/mL) | 62.5 (≈ 21.8 µg/mL) |  |  | 62.5 (≈ 21.8 µg/mL) | 31.2 (≈ 10.9 µg/mL) |  | 62.5 (≈ 21.8 µg/mL) |  |  |  |  |  |  |  | 
8 | CC[C@H](C)[C@H](N)C1=N[C@H](C(=O)N[C@@H](CC(C)C)C(=O)N[C@H](CCC(=O)O)C(=O)N[C@H](C(=O)N[C@H]2CCCCNC(=O)[C@H](CC(N)=O)NC(=O)[C@@H](CC(=O)O)NC(=O)[C@H](Cc3cnc[nH]3)NC(=O)[C@@H](Cc3ccccc3)NC(=O)[C@H]([C@@H](C)CC)NC(=O)[C@@H](CCCN)NC2=O)[C@@H](C)CC)CS1 [BACITRACIN] ({Ileψ(thiazoline)Cys}-L[dE]IK[dOrn]I[dF]H[dD]N; lactam 4-C) |  |  | 31.6 (≈ 45 µg/mL) | 15.6 (≈ 22.2 µg/mL) | 31.2 (≈ 44.5 µg/mL) |  |  | 31.6 (≈ 45 µg/mL) | 15.6 (≈ 22.2 µg/mL) |  | 15.6 (≈ 22.2 µg/mL) |  |  |  |  |  |  |  | 
9 | O=C(O)c1cn(C2CC2)c2cc(N3CCNCC3)c(F)cc2c1=O [CIPROFLOXACIN] |  |  | 250 (≈ 82.8 µg/mL) | 250 (≈ 82.8 µg/mL) | 0.98 (≈ 0.325 µg/mL) |  |  | 500 (≈ 166 µg/mL) | 500 (≈ 166 µg/mL) |  | 0.98 (≈ 0.325 µg/mL) |  |  |  |  |  |  |  | 
10 | OC(Cn1cncn1)(Cn1cncn1)c1ccc(F)cc1F [FLUCONAZOLE] |  |  |  |  |  | > 125 | 0.12 (≈ 0.0368 µg/mL) |  |  | 0.48 (≈ 0.147 µg/mL) |  |  | 0.06 (≈ 0.0184 µg/mL) | 0.24 (≈ 0.0735 µg/mL) | 0.98 (≈ 0.3 µg/mL) |  | 0.12 (≈ 0.0368 µg/mL) | > 125 | MIC50 (Lichtheimia corymbifera [19]): > 125 µM; MIC50 (Lichtheimia corymbifera [20]): > 125 µM; MIC50 (Aspergillus fumigatus [23]): > 125 µM
11 | CC1(C)S[C@@H]2[C@H](NC(=O)COc3ccccc3)C(=O)N2[C@H]1C(=O)O [PENICILLIN V] |  |  | 125 (≈ 43.8 µg/mL) | 31.2 (≈ 10.9 µg/mL) | 0.24 (≈ 0.0841 µg/mL) |  |  | 125 (≈ 43.8 µg/mL) | 125 (≈ 43.8 µg/mL) |  | 0.24 (≈ 0.0841 µg/mL) |  |  |  |  |  |  |  | 
